Test results from paper PMC7719384 (Clinical and Translational Science, 2020).
Read-outs that look alike come from different tables or passages of the source. Blank lines part the entries; values can stand above or below the molecule they belong to.

What was measured:
[1] = cited from earlier work
BCRP [2] = biological target: T1, BCRP (Homo sapiens, UniProt Q9UNQ0); format: biochemical
T1 sequence (Q9UNQ0 1-655): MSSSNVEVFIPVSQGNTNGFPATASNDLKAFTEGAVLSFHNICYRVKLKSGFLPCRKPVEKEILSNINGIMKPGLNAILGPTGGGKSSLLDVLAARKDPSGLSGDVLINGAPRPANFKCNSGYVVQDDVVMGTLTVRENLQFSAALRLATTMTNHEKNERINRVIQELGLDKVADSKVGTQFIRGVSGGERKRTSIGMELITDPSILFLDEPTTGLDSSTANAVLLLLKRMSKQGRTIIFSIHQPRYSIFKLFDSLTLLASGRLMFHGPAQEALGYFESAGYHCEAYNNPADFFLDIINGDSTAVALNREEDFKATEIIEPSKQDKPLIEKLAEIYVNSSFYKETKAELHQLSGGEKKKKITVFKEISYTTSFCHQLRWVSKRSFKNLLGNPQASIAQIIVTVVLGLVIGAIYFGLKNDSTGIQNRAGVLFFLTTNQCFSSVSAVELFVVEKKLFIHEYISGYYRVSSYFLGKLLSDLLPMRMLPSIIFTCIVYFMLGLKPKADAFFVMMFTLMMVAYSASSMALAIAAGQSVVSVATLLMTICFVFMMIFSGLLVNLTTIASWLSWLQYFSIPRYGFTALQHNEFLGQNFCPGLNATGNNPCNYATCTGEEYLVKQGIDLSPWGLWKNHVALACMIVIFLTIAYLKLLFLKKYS

[3] = format: in vivo, human; details: rosuvastatin 10 mg; for AUC(0-inf) / half-life: plasma; for AUC(0-inf): AUC0–∞; for half-life: t ½
[4] = Pharmacokinetics of allopurinol and febuxostat in healthy volunteers; format: in vivo, human; details: for variation of AUC0–24 between individual participants / variation of Cmax between individual participants: 300 mg allopurinol or 120 mg febuxostat once daily
[5] = tested on: breast cancer resistance protein (BCRP; encoded by ABCG2); details: in vitro; cited from earlier work
[6] = mice; cited from earlier work
CYP2C8 = details: in vitro; cited from earlier work
CYP2D6 = details: in vitro; cited from earlier work
CYP1A2 = details: in vitro; cited from earlier work
CYP2C9 = details: in vitro; cited from earlier work
CYP2C19 = details: in vitro; cited from earlier work
CYP3A4 = details: in vitro; cited from earlier work
[7] = in vivo in humans; cited from earlier work
[8] = in vivo in humans; cited from earlier work; remark: listed apart in the source
[9] = patients with established cardiovascular disease; cited from earlier work
BCRP [10] = details: in vitro; cited from earlier work
[11] = in vivo in humans; cited from earlier work; remark: listed apart in the source
[12] = cited from earlier work; remark: listed apart in the source
OATP1B1 = details: in vitro; cited from earlier work
OATP1B3 = details: in vitro; cited from earlier work
OATP2B1 = details: in vitro; cited from earlier work
[13] = 120 mg febuxostat once daily vs placebo
[14] = human, oral, allopurinol phase (300 mg once daily days 1–7), geometric mean (geometric CV)
[15] = human, oral, febuxostat phase (120 mg once daily days 4–7), geometric mean (geometric CV)

Structure (SMILES): CC[C@H](C)C(=O)O[C@H]1C[C@H](O)C=C2C=C[C@H](C)[C@H](CC[C@@H](O)C[C@@H](O)CC(=O)O)[C@H]21 [pravastatin]
effect of the ABCG2 c.421C>A variant on AUC [1]: no significant effect

Structure (SMILES): Cc1nc(-c2ccc(OCC(C)C)c(C#N)c2)sc1C(=O)O [febuxostat]
IC50 (BCRP [2]): 350 nM
effect on Clrenal of rosuvastatin [3, 13]: remained unaffected
effect on t ½ of rosuvastatin [3, 13]: remained unaffected
variation of AUC0–24 between individual participants [4]: 3.0 fold
variation of Cmax between individual participants [4]: 5.0 fold
increase of AUC0–24 in individuals homozygous for SLCO1B1 c.521T>C ([4]; compared with the noncarriers and one heterozygote, data not shown, preliminary finding): 1.8 fold
AUC(0-t) ([4]; human, plasma, oral, 120 mg): 12300 ng·h/mL
Cmax ([4]; human, plasma, oral, 120 mg): 4300 ng/mL
half-life ([4]; human, plasma, oral, 120 mg): 6 h
inhibition of BCRP mediated transport of urate [5]: strongly inhibit
exposure to the BCRP substrate sulfasalazine [6]: markedly increase
inhibition of CYP2C8 (CYP2C8): weak inhibitor
inhibition of CYP2D6 (CYP2D6): weak inhibitor
inhibition of CYP1A2 (CYP1A2): does not inhibit
inhibition of CYP2C9 (CYP2C9): does not inhibit
inhibition of CYP2C19 (CYP2C19): does not inhibit
inhibition of CYP3A4 (CYP3A4): does not inhibit
effect on the pharmacokinetics of rosiglitazone [7]: no effect
increase of the AUC of desipramine [8]: 12%
all-cause and cardiovascular mortality compared with allopurinol [9]: increases

Structure (SMILES): O=C(O)C[C@H](O)C[C@H](O)/C=C/c1c(C2CC2)nc2ccccc2c1-c1ccc(F)cc1 [pitavastatin]
effect of the ABCG2 c.421C>A variant on AUC [1]: no significant effect

Structure (SMILES): O=c1[nH]c(=O)c2c[nH]nc2[nH]1 [oxypurinol]
inhibition of BCRP (BCRP [10]): have not inhibited

CL renal ([3]; human, plasma and urine, oral, Clrenal, allopurinol phase (300 mg once daily days 1–7), geometric mean (geometric CV)): 225 mL/min
AUC(0-inf) [3, 14]: 53.5 ng·h/mL
AUC(0-inf) [3, 15]: 82.5 ng·h/mL
half-life [3, 14]: 10.9 h
half-life [3, 15]: 6.3 h
AUC0–∞, allopurinol phase to placebo phase ratio (90% CI) ([3]; geometric mean ratio): 1.26 (0.98–1.61); P = 0.13
AUC0–∞, febuxostat phase to placebo phase ratio (90% CI) ([3]; geometric mean ratio): 1.93 (1.51–2.48); P = 0.001
Clrenal, allopurinol phase to placebo phase ratio (90% CI) ([3]; geometric mean ratio): 0.86 (0.65–1.14); P = 0.36
Clrenal, febuxostat phase to placebo phase ratio (90% CI) ([3]; geometric mean ratio): 0.82 (0.58–1.14); P = 0.30
Cmax, allopurinol phase to placebo phase ratio (90% CI) ([3]; geometric mean ratio): 1.22 (1.02–1.47); P = 0.08
Cmax, febuxostat phase to placebo phase ratio (90% CI) ([3]; geometric mean ratio): 2.13 (1.76–2.58); P = 5 × 10^−5
t ½, allopurinol phase to placebo phase ratio (90% CI) ([3]; geometric mean ratio): 1.72 (1.03–2.85); P = 0.08
t ½, febuxostat phase to placebo phase ratio (90% CI) ([3]; geometric mean ratio): 1.00 (0.75–1.33); P = 0.99
Structure (SMILES): CC(C)c1nc(N(C)S(C)(=O)=O)nc(-c2ccc(F)cc2)c1/C=C/[C@@H](O)C[C@@H](O)CC(=O)O [rosuvastatin]
Ae, amount excreted into urine ([3]; allopurinol phase (300 mg once daily days 1–7), geometric mean (geometric CV)): 0.45 (101%) mg
Ae, allopurinol phase to placebo phase ratio (90% CI) ([3]; geometric mean ratio): 0.99 (0.69–1.43); P = 0.98
Ae, febuxostat phase to placebo phase ratio (90% CI) ([3]; geometric mean ratio): 1.76 (1.16–2.66); P = 0.03
increase of AUC by homozygosity for SLCO1B1 c.521T>C [11]: 1.7–2.2 fold
increase of Cmax by homozygosity for SLCO1B1 c.521T>C [11]: 1.8–2.7 fold

IC50 (BCRP [2]): > 200000 nM
effect on the pharmacokinetics of rosuvastatin ([3]; 300 mg allopurinol once daily for 7 days vs placebo): no statistically significant effect
variation of AUC0–24 between individual participants [4]: 4.7 fold
variation of Cmax between individual participants [4]: 1.8 fold
AUC(0-t) ([4]; human, plasma, oral, 300 mg): 5700 ng·h/mL
Cmax ([4]; human, plasma, oral, 300 mg): 2000 ng/mL
Structure (SMILES): Oc1ncnc2[nH]ncc12 [allopurinol]
inhibition of BCRP (BCRP [10]): have not inhibited

Structure (SMILES): CCC(C)(C)C(=O)O[C@H]1C[C@@H](C)C=C2C=C[C@H](C)[C@H](CC[C@@H](O)C[C@@H](O)CC(=O)O)[C@H]21 [simvastatin acid]
effect of the ABCG2 c.421C>A variant on AUC [1]: no significant effect

Structure (SMILES): CC1=NN(c2ccc(C)c(C)c2)C(=O)/C1=N\Nc1cccc(-c2cccc(C(=O)O)c2)c1O [eltrombopag]
increase of rosuvastatin AUC [12]: 1.6 fold
inhibition of OATP1B1 (OATP1B1): inhibits
inhibition of OATP1B3 (OATP1B3): inhibits
inhibition of OATP2B1 (OATP2B1): inhibits
